pEC50: −log10 of the molar value. “Also recorded” adds a separate entry of the source. Where two headings read alike, the source gives them in different places.
How the values were obtained:
Aqueous solubility = assay type: physicochemical
human TLR2 = human TLR2 (Homo sapiens (Human), UniProt O60603); experiment: human TLR2-specific NF-κB reporter gene assay (HEK-Blue cells); assay type: cell-based; conditions: for pEC50 / hTLR2-agonistic activity in words: hTLR2 reporter gene assay; for pEC50: read-out: EC50 in engaging hTLR2; for remark beside the EC50 (potency) / EC50: human TLR2-specific reporter gene assay; for EC50: ND = no activity detected at 10 μM, read-out: TLR2-Agonistic Activity (EC50 in nM); for absolute magnitude of TLR2-induced NF-κB activation: hTLR2, FIG. 1
Description: (§1) The induction of NF-κB in a TLR2-specific reporter gene assay was quantified using HEK-BLUE™ cells as previously described (Wu, W. et al., J. Med. Chem. 2010, 53, 3198-3213). HEK293 cells stably transfected with either human TLR2 or murine TLR2 and alkaline phosphatase (sAP) were obtained from InvivoGen (San Diego, Calif.), and were maintained in HEK-BLUE™ Selection medium containing zeocin and normocin. Stable expression of secreted alkaline phosphatase (sAP) under control of NF-κB promoters is inducible by TLR2 agonists, and extracellular sAP in the supernatant is proportional to NF-κB induction. HEK-Blue cells were incubated at a density of ˜10^5 cells/mL in a volume of 80 μL/well, in 384-well, flat-bottomed, cell culture-treated microtiter plates until confluency was achieved, and then stimulated with serially-diluted aliquots of compounds for 12 h. sAP was assayed spectrophoto-metrically using an alkaline phosphatase-specific chromogen (present in the HEK-detection medium as supplied by the vendor) at 620 nm. For antagonism assays, HEK-Blue cells were incubated at a density of ˜10^5 cells/mL in a volume of 80 μL/well and stimulated with either PAM2CS (1 μg/mL) or lipoteichoic acid (1 μg/mL) in the presence of graded concentrations of the test compounds as described for TLR7 previously (Shukla, N. M.; et al., Bioorg. Med. Chem. Lett. 2009, 19, 2211-2214; Shukla, N. M. et al., Bioorg. Med. Chem. 2011, 19, 3801-3811).

murine TLR2 = murine TLR2 (Mus musculus (Mouse), UniProt Q9QUN7); experiment: murine TLR2-specific NF-κB reporter gene assay (HEK-Blue cells); assay type: cell-based
Description: as §1, with “For antagonism assays, HEK-Blue cells were incubated at a density of ˜10^5 cells/mL in a volume of 80 μL/well and stimulated with either PAM2CS (1 μg/mL) or lipoteichoic acid (1 μg/mL) in the presence of graded concentrations of the test compounds as described for TLR7 previously (Shukla, N. M.; et al., Bioorg. Med. Chem. Lett. 2009, 19, 2211-2214; Shukla, N. M. et al., Bioorg. Med. Chem. 2011, 19, 3801-3811).” left out

[1] = Stability of aqueous stocks; assay type: physicochemical

murine TLR2, sequence (Q9QUN7 25-784): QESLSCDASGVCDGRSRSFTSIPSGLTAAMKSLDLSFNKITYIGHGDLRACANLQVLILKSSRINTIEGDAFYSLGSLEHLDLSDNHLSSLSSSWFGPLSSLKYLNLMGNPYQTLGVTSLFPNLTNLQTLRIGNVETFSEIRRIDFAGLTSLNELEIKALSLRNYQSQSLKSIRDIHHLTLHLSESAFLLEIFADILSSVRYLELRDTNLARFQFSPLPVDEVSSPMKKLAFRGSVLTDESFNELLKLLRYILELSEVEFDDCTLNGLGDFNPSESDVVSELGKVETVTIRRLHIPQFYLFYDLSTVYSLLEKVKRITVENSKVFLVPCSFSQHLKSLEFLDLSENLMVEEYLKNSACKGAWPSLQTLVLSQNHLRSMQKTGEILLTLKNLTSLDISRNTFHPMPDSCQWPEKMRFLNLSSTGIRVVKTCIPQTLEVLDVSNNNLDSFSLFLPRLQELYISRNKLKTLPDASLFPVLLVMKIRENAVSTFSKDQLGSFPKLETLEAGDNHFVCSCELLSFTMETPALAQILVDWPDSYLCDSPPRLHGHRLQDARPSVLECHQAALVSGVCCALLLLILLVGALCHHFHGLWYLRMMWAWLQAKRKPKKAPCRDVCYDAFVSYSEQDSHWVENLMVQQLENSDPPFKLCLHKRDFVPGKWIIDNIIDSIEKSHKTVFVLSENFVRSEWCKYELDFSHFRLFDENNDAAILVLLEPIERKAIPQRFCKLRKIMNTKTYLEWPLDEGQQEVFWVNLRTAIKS
human TLR2, sequence (O60603 21-784): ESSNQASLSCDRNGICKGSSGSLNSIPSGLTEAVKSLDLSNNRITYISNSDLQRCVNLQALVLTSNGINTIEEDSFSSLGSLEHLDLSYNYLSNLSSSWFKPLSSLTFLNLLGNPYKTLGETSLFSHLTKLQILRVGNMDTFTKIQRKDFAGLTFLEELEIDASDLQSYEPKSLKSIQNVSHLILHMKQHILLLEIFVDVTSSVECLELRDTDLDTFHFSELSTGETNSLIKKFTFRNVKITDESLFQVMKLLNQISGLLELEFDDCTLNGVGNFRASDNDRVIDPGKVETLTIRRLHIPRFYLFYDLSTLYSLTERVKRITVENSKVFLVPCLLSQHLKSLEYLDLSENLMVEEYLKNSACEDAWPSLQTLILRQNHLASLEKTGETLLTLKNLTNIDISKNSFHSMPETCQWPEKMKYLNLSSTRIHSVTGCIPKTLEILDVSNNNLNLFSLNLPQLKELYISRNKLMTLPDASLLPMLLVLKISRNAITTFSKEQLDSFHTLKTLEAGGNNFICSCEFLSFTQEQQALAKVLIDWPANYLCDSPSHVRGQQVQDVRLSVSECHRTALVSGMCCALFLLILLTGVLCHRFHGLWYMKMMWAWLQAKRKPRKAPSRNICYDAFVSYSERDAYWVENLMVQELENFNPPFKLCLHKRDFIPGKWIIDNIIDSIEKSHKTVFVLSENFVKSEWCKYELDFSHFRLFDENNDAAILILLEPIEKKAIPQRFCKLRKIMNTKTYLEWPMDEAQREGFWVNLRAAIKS

EC50 (human TLR2) [nM]	SMILES	further results
	CCCCCCCCCCCCCCCC(=O)OCCSC[C@H](N)C(=O)N[C@@H](CO)C(=O)OC [Compound 6d]	water solubility (Aqueous solubility): water-soluble; pEC50 (human TLR2): 8.44; remark beside the EC50 (potency) (human TLR2): Low potency; agonistic activity in mTLR2 / specificity for hTLR2 (murine TLR2): activating human TLR2 (hTLR2), but not murine TLR2 (mTLR2); also recorded: entirely inactive
0.279	CCCCCCCCCCCCCCCCOC(=O)NCCSC[C@H](NC(C)=O)C(=O)N[C@@H](CO)C(=O)NCCCN(C)C [Compound 52, Hexadecyl ((8S,11R)-11-acetamido-8-(hydroxymethyl)-2-methyl-7,10-dioxo-13-thia-2,6,9-triazapentadecan-15-yl)carbamate]	water solubility (Aqueous solubility): restored
0.518	CCCCCCCCCCCCCCCC(=O)OCCSC[C@H](NC(C)=O)C(=O)N[C@@H](COC(=O)CCC(=O)O)C(=O)OC [Compound 27, (7S,10R)-10-Acetamido-7-(methoxycarbonyl)-4,9,16-trioxo-5,15-dioxa-12-thia-8-azahentriacontan-1-oic acid]	water solubility (Aqueous solubility): exceptionally water soluble
7.1	CCCCCCCCCCCCCCCC(=O)OCCSC[C@H](NC(C)=O)C(=O)N[C@@H](COS(=O)(=O)O)C(=O)OC [Compound 26, 2-(((R)-2-Acetamido-3-(((S)-1-methoxy-1-oxo-3-(sulfooxy)propan-2-yl)amino)-3-oxopropyl)thio)ethyl palmitate]	water solubility (Aqueous solubility): exceptionally water soluble
0.225	CCCCCCCCCCCCCCCC(=O)OCCSC[C@H](NC(C)=O)C(=O)N[C@@H](CCCCN)C(=O)OC [Compound 23, 2-(((R)-2-Acetamido-3-(((S)-6-amino-1-methoxy-1-oxohexan-2-yl)amino)-3-oxopropyl)thio)ethyl palmitate]	stability of aqueous stocks [1]: significant loss of activity of aqueous stocks within about a week; water solubility (Aqueous solubility): highly water soluble
1.01	CCCCCCCCCCCCCCCC(=O)OCCSC[C@H](NC(C)=O)C(=O)N[C@@H](CO)C(=O)OC [Compound 11d, 2-(((R)-2-acetamido-3-(((S)-3-hydroxy-1-methoxy-1-oxopropan-2-yl)amino)-3-oxopropyl)thio)ethyl palmitate]	absolute magnitude of TLR2-induced NF-κB activation (human TLR2): far greater
1.27	CCCCCCCCCCCCCCCC(=O)OCCSC[C@H](NC(C)=O)C(=O)N[C@@H](COC(=O)c1cccnc1)C(=O)OC [Compound 28, (S)-2-((R)-2-Acetamido-3-((2-(palmitoyloxy)ethyl)thio)propanamido)-3-methoxy-3-oxopropyl nicotinate]	
5.47	CCCCCCCCCCCCCCCC(=O)OCCSC[C@H](N)C(=O)N[C@@H](COC(=O)CCC)C(=O)OC [Compound 14b, 2-(((R)-2-amino-3-(((S)-3-(butyryloxy)-1-methoxy-1-oxopropan-2-yl)amino)-3-oxopropyl)thio)ethyl palmitate]	
1.13	CCCCCCCCCCC[C@@H](O)CC(=O)OCCSC[C@H](NC(C)=O)C(=O)N[C@@H](CO)C(=O)OC [Compound 65]	
3.08	CCCCCCCCCCC[C@H](CC(=O)OCCSC[C@H](NC(C)=O)C(=O)N[C@@H](CO)C(=O)OC)OC(=O)CCCCCCC [Compound 85]	
4.79	CCCCCCCCCCCCCCCCCC(=O)OCCSC[C@H](N)C(=O)N[C@@H](CO)C(=O)OC [Compound 6e, 2-(((R)-2-amino-3-(((S)-3-hydroxy-1-methoxy-1-oxopropan-2-yl)amino)-3-oxopropyl)thio)ethyl stearate]	remark beside the EC50 (potency) (human TLR2): Low potency; agonistic activity in mTLR2 / specificity for hTLR2 (murine TLR2): entirely inactive
	CCCCCCCCCCCCCCCC(=O)OCCSC[C@H](NC(=O)C(F)(F)F)C(=O)N[C@@H](CO)C(=O)OC [Compound 11h, 2-(((R)-3-(((S)-3-hydroxy-1-methoxy-1-oxopropan-2-yl)amino)-3-oxo-2-(2,2,2-trifluoro-acetamido)propyl)thio)ethyl palmitate]	absolute magnitude of TLR2-induced NF-κB activation (human TLR2): low magnitude; pEC50 (human TLR2): 8.35
641	CCCCCCCCCCCCCCCCn1cc(CCSC[C@H](NC(C)=O)C(=O)N[C@@H](CO)C(=O)OC)nn1 [Compound 38, (S)-Methyl 2-((R)-2-acetamido-3-((2-(1-hexadecyl-1H-1,2,3-triazol-4-yl)ethyl)thio)propanamido)-3-hydroxypropanoate]	
0.182	CCCCCCCCCCC[C@H](CC(=O)OCCSC[C@H](NC(C)=O)C(=O)N[C@@H](CO)C(=O)OC)OC(C)=O [Compound 82]	
3.8	CCCCCCCCCCCCCCCC(=O)OCCSC[C@H](NC(=O)CCCCCCC)C(=O)N[C@@H](CO)C(=O)OC [Compound 11f, 2-(((R)-3-(((S)-3-hydroxy-1-methoxy-1-oxopropan-2-yl)amino)-2-octanamido-3-oxopropyl)thio)ethyl palmitate]	
> 10000	CCCCCCCC(=O)OCCSC[C@H](N)C(=O)N[C@@H](CO)C(=O)OC [Compound 6b, 2-(((R)-2-amino-3-(((S)-3-hydroxy-1-methoxy-1-oxopropan-2-yl)amino)-3-oxopropyl)thio)ethyl octanoate]	
> 10000	CCCCCCCCCCCCCCCC(=O)OCCCSC[C@H](N)C(=O)N[C@@H](CO)C(=O)OC [Compound 15, 3-((R)-2-amino-3-((S)-3-hydroxy-1-methoxy-1-oxopropan-2-ylamino)-3-oxopropylthio)propyl palmitate]	hTLR2-agonistic activity in words (human TLR2): inactive
> 10000	CCCCCCCCCCCCCCCC(=O)OCCSC[C@H](NS(=O)(=O)C(F)(F)F)C(=O)N[C@@H](CO)C(=O)OC [Compound 11k, 2-(((R)-3-(((S)-3-hydroxy-1-methoxy-1-oxopropan-2-yl)amino)-3-oxo-2-(trifluoromethyl-sulfonamido)propyl)thio)ethyl palmitate]	hTLR2-agonistic activity in words (human TLR2): inactive
1.5	CCCCCCCCCCC[C@H](CC(=O)OCCSC[C@H](NC(C)=O)C(=O)N[C@@H](CO)C(=O)OC)OC(=O)CCCCC [Compound 84]	
	COC(=O)[C@H](CO)NC(=O)[C@@H](N)CSCCOC(=O)c1ccc(-c2ccc(-c3ccccc3)cc2)cc1 [Compound 6h]	hTLR2-agonistic activity in words (human TLR2): complete absence of activity
> 10000	CCCCCCCCCCCCCCCC(=O)OCCSC[C@H](NCCCCCCCC)C(=O)N[C@@H](CO)C(=O)OC [Compound 11b, 2-(((R)-3-(((S)-3-hydroxy-1-methoxy-1-oxopropan-2-yl)amino)-2-(octylamino)-3-oxopropyl)thio)ethyl palmitate]	hTLR2-agonistic activity in words (human TLR2): inactive

SMILES	EC50 (human TLR2) [nM]	further results
CCCCCCCCCCCCCCCC(=O)OCCSC[C@H](N)C(=O)N[C@@H](COC(C)=O)C(=O)OC [Compound 14a, 2-(((R)-3-(((S)-3-acetoxy-1-methoxy-1-oxopropan-2-yl)amino)-2-amino-3-oxopropyl)thio)ethyl palmitate]	2.97	hTLR2-agonistic activity in words (human TLR2): virtually indistinguishable from that of 6d

— patent publication US9676818B2, “Toll-like receptor 2-agonistic lipopeptides, and method of making the same” (University of Kansas, priority 2013, dated 2017)
